In patent publication US7960376B2, “Benzo-fused heterocycles” (priority 2007, dated 2011):

Assays:
Format in all cases: cell-based
[1] = target: human CB1 receptor (hCB1) (Homo sapiens, UniProt P21554); assay: cAMP assay (LANCE TR-FRET) in CHO-K1 cells expressing hCB1; conditions: intracellular cAMP, NKH-477 prestimulated, + agonist, − inverse agonist
rat CB2 receptor (rCB2) = target: T1, rat CB2 receptor (rCB2) (Rattus norvegicus, UniProt Q9QZN9); assay: cell-based; conditions: intracellular cAMP, CHO-K1 cells, NKH-477 prestimulated; + agonist, − inverse agonist
T1 sequence (Q9QZN9 1-360): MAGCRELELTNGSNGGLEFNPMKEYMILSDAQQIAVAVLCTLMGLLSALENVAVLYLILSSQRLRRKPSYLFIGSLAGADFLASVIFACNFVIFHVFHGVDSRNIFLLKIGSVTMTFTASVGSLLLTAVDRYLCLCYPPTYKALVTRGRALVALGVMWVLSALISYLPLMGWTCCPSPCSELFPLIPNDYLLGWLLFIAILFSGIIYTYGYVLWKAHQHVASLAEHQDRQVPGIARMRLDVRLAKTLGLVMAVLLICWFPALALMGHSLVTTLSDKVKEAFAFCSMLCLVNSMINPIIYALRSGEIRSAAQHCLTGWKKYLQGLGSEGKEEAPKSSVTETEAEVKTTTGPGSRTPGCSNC

[2] = target: human CB2 receptor (hCB2) (Homo sapiens, UniProt P34972); assay: cell-based; conditions: intracellular cAMP, CHO-K1 cells, NKH-477 prestimulated; + agonist, − inverse agonist
Chain of human CB2 receptor (hCB2) (P34972 whole entry): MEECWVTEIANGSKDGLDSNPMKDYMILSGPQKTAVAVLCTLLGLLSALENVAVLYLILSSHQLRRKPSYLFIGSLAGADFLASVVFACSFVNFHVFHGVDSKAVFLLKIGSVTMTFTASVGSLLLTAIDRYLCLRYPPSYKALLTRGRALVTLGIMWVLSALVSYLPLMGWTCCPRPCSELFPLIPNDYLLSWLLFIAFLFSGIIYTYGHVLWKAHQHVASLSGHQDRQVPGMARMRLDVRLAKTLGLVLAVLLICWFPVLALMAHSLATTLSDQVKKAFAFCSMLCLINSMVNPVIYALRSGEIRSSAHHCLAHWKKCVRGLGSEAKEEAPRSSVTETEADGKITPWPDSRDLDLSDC

Chain of human CB1 receptor (hCB1) (P21554 whole entry): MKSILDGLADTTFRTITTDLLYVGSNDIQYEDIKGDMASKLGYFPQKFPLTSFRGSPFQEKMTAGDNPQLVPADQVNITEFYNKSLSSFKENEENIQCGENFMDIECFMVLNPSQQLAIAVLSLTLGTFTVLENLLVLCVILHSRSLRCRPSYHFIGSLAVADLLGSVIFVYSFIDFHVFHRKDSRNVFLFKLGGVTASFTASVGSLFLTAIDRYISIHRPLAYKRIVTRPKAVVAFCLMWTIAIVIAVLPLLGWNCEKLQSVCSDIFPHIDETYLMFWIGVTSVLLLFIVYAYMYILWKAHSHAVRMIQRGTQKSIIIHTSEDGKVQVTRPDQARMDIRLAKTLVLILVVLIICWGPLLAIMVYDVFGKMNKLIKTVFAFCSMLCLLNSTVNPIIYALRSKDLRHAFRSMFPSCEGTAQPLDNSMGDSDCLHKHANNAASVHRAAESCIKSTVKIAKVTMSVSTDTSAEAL

| SMILES | hCB1 EC50 range [1] | rCB2 EC50 range (rat CB2 receptor (rCB2)) | hCB2 EC50 range [2] |
| --- | --- | --- | --- |
| CC(C)CNC(=O)c1ccc2c(c1)N(C(=O)c1ccc(F)cc1)CCS2 [Example 3, 4-(4-fluorobenzoyl)-N-isobutyl-3,4-dihydro-2H-benzo[b][1,4] thiazine-6-carboxamide] | −E | −E |  |
| C[C@@H](NC(=O)c1ccc2c(c1)N(S(=O)(=O)c1ccccc1)CCC(C)(C)S2)C(C)(C)C [Example 97, (R)-N-(3,3-dimethyl-butan-2-yl)-2,2-dimethyl-5-(phenyl-sulfonyl)-2,3,4,5-tetrahydrobenzo[b][1,4] thiazepine-7-carboxamide] | −D |  | +D |
| CC1(C)CCN(S(=O)(=O)c2ccccc2)c2cc(C(=O)N3CCCCC3)ccc2S1 [Example 93, (2,2-dimethyl-5-(phenylsulfonyl)-2,3,4,5-tetrahydro-benzo[b][1,4]thiazepin-7-yl)(piperidin-1-yl)methanone] | −E | +C |  |
| COc1ccc(C(=O)N2CCSc3ccc(C(=O)NC(C)(C)C)cc32)cc1 [Example 7, N-tert-butyl-4-(4-methoxybenzoyl)-3,4-dihydro-2H-benzo[b] [1,4]thiazine-6-carboxamide] | −E | −E |  |
| CC1(C)CCN(S(=O)(=O)c2ccc(F)cc2)c2cc(C(=O)NCC3CCOCC3)ccc2S1 [Example 99, 5-(4-fluorophenyl-sulfonyl)-2,2-dimethyl-N-((tetrahydro-2H-pyran-4-yl)methyl)-2,3,4,5-tetrahydro-benzo[b][1,4]thiazepine-7-carboxamide] | −E | −C |  |
| CCC(=O)N1CCSc2ccc(C(=O)NC3CCCC3)cc21 [Example 36, N-cyclopentyl-4-propionyl-3,4-dihydro-2H-benzo[b][1,4]thiazine-6-carboxamide] |  | −E | +E |
| CC(=O)N1CCSc2ccc(C(=O)NC3CCCC3)cc21 [Example 35, 4-acetyl-N-cyclopentyl-3,4-dihydro-2H-benzo[b][1,4]thiazine-6-carboxamide] |  | −E | +E |
| O=C(NC1CCCC1)c1ccc2c(c1)N(C(=O)c1ccc(F)cc1)CCS2 [Example 12, N-cyclopentyl-4-(4-fluorobenzoyl)-3,4-dihydro-2H-benzo[b] [1,4]thiazine-6-carboxamide] | −E | −D |  |
| CC(C)CNC(=O)c1ccc2c(c1)N(S(=O)(=O)c1ccccc1)CCC(C)(C)S2 [Example 92, N-isobutyl-2,2-dimethyl-5-(phenyl-sulfonyl)-2,3,4,5-tetrahydrobenzo[b][1,4] thiazepine-7-carboxamide] | −E | −E |  |
| CC(C)(C)NC(=O)c1ccc2c(c1)N(C(=O)c1ccc(F)cc1)CCS2 [Example 6, N-tert-butyl-4-(4-fluorobenzoyl)-3,4-dihydro-2H-benzo[b][1,4] thiazine-6-carboxamide] | −E | −E |  |
| O=C(NC12CC3CC(CC(C3)C1)C2)c1ccc2c(c1)N(S(=O)(=O)c1ccc(F)cc1)CCS2 [Example 51, N-(1-adamantyl)-4-(4-fluorophenylsulfonyl)-3,4-dihydro-2H-benzo[b][1,4]thiazine-6-carboxamide] | +D | −C |  |
| CC(C)C(=O)N1CCSc2ccc(C(=O)NC(C)(C)C)cc21 [Example 34, N-tert-butyl-4-isobutyryl-3,4-dihydro-2H-benzo[b][1,4]thiazine-6-carboxamide] |  | +D | +D |
| CC(C)(C)NC(=O)c1ccc2c(c1)N(C(=O)c1ccc(Cl)cc1)CCS2 [Example 10, N-tert-butyl-4-(4-chlorobenzoyl)-3,4-dihydro-2H-benzo[b][1,4]thiazine-6-carboxamide] |  | +D | +D |
| O=S(=O)(c1ccc(C(F)(F)F)cc1)N1CCSc2ccc(-c3ncc(-c4ccccc4)[nH]3)cc21 [Example 107, 6-(5-phenyl-1H-imidazol-2-yl)-4-(4-(trifluoromethyl)phenylsulfonyl)-3,4-dihydro-2H-benzo[b][1,4]thiazine] |  | +B | +C |
| Cc1ccc(C(=O)N2CCSc3ccc(C(=O)NC(C)(C)C)cc32)cc1 [Example 8, N-tert-butyl-4-(4-methylbenzoyl)-3,4-dihydro-2H-benzo[b][1,4]thiazine-6-carboxamide] | −E |  |  |
| O=C(NNC(=O)c1ccc2c(c1)N(S(=O)(=O)c1ccc(F)cc1)CCS2)c1ccccc1 [Example 78, N′-benzoyl-4-(4-fluorophenylsulfonyl)-3,4-dihydro-2H-benzo[b][1,4]thiazine-6-carbohydrazide] |  | +D | +E |
| CC(C)NC(=O)c1ccc2c(c1)N(C(=O)c1ccc(Cl)cc1)CCS2 [Example 29] |  | +D | +D |

| SMILES | hCB1 EC50 range [1] | rCB2 EC50 range (rat CB2 receptor (rCB2)) | hCB2 EC50 range [2] |
| --- | --- | --- | --- |
| CC(C)CNC(=O)c1ccc2c(c1)N(S(=O)(=O)c1ccccc1)CCS2 [Example 41, N-isobutyl-4-(phenylsulfonyl)-3,4-dihydro-2H-benzo-[b][1,4]thiazine-6-carboxamide] |  | +A | +C |
| CCC(=O)N1CCSc2ccc(C(=O)NC34CC5CC(CC(C5)C3)C4)cc21 [Example 39, N-(1-adamantyl)-4-propionyl-3,4-dihydro-2H-benzo[b][1,4]thiazine-6-carboxamide] | −E | −E |  |
| CC(C)(C)NC(=O)c1ccc2c(c1)N(S(=O)(=O)c1ccccc1)CCS2 [Example 46, N-tert-butyl-4-(phenylsulfonyl)-3,4-dihydro-2H-benzo[b][1,4]thiazine-6-carboxamide] |  | +B | +B |
| O=C(c1ccc2c(c1)N(S(=O)(=O)c1ccccc1)CCS2)N1CCOCC1 [Example 68] |  | +D | +D |
| O=S(=O)(c1ccc(C(F)(F)F)cc1)N1CCSc2ccc(-c3nc(-c4ccccn4)no3)cc21 [Example 81, 3-(pyridin-2-yl)-5-(4-(4-(trifluoromethyl)phenylsulfonyl)-3,4-dihydro-2H-benzo[b][1,4]thiazin-6-yl)-1,2,4-oxadiazole] |  | +A | +B |
| O=C(c1ccc2c(c1)N(S(=O)(=O)c1ccccc1)CCS2)N1CCCCC1 [Example 67, (4-(phenylsulfonyl)-3,4-dihydro-2H-benzo[b][1,4]thiazin-6-yl)(piperidin-1-yl)methanone] |  | +C | +D |
| COCCCNC(=O)c1ccc2c(c1)N(C(=O)c1ccc(C)cc1)CCS2 [Example 18, N-(3-methoxypropyl)-4-(4-methylbenzoyl)-3,4-dihydro-2H-benzo[b][1,4]thiazine-6-carboxamide] |  | −E | −E |
| CCc1noc(-c2ccc3c(c2)N(S(=O)(=O)c2ccccc2)CCS3)n1 [Example 86] |  | +A | +B |
| CCN(CC)C(=O)c1ccc2c(c1)N(S(=O)(=O)c1ccccc1)CCS2 [Example 65, N,N-diethyl-4-(phenylsulfonyl)-3,4-dihydro-2H-benzo[b][1,4]thiazine-6-carboxamide] |  | +C | +C |
| O=C(c1ccc2c(c1)N(S(=O)(=O)c1ccc(C(F)(F)F)cc1)CCS2)N1CCCC1 [Example 74, pyrrolidin-1-yl(4-(4-(trifluoromethyl)phenylsulfonyl)-3,4-dihydro-2H-benzo[b][1,4]thiazin-6-yl)methanone] |  | −C | +E |
| CC(C)CNC(=O)c1ccc2c(c1)N(S(C)(=O)=O)CCS2 [Example 54, N-isobutyl-4-(methylsulfonyl)-3,4-dihydro-2H-benzo[b][1,4]thiazine-6-carboxamide] |  | +D | +E |
| Cc1nnc(-c2ccc3c(c2)N(S(=O)(=O)c2cn(C)cn2)CCS3)o1 [Example 106, 2-methyl-5-(4-(1-methyl-1H-imidazol-4-ylsulfonyl)-3,4-dihydro-2H-benzo[b][1,4]thiazin-6-yl)-1,3,4-oxadiazole] |  | +D | +E |
| CC(C)CNC(=O)c1ccc2c(c1)N(S(=O)(=O)c1ccccc1)CCO2 [Example 59, N-isobutyl-4-(phenylsulfonyl)-3,4-dihydro-2H-benzo [b][1,4]oxazine-6-carboxamide] |  | +C | +C |
| CC(C)NC(=O)c1ccc2c(c1)N(S(C)(=O)=O)CCS2 [Example 57, N-isopropyl-4-(methylsulfonyl)-3,4-dihydro-2H-benzo[b][1,4]thiazine-6-carboxamide] |  | +D | +E |
| CCN(CC)C(=O)c1ccc2c(c1)N(S(=O)(=O)c1ccc(F)cc1)CCS2 [Example 70, N,N-diethyl-4-(4-fluorophenylsulfonyl)-3,4-dihydro-2H-benzo[b][1,4]thiazine-6-carboxamide] |  | +C | +D |
| COCCCNC(=O)c1ccc2c(c1)N(C(=O)c1ccccc1)CCS2 [Example 16, 4-benzoyl-N-(3-methoxypropyl)-3,4-dihydro-2H-benzo[b][1,4]thiazine-6-carboxamide] |  | −D | −E |
